Values joined by “and” are separate entries in the source; they are usually repeats but may differ in a detail not shown here. Equal entries are not always repeated.

The source of these data is patent US20070003672A1, “Tri-part calcium fortified compositions and methods of making the same” (priority 2005, published 2007).

The nature of the first data set: Physical/chemical attributes (calcium, pH, titratable acidity, Brix, Brix/Acid ratio) of calcium fortified orange juice. Format: physicochemical. Details: unit not given here. As to conditions: orange juice fortified at 450 mg/100 mL calcium load. An excerpt: The flavor of orange juice, for example, can be characterized by a unique balance of sweetness resulting from the sugar content and tartness resulting from the acid content. A challenge of fortifying orange juice with nutritionally significant amounts of calcium is maintaining the sweet to tart balance. This balance can be expressed analytically as the Brix to acid ratio, as described above. The Brix component of the ratio is the measure of soluble solids in the beverage often determined by a refractometer. The acid component can be determined by titration with a base such as sodium hydroxide. The Brix to acid ratio is an analytical representation or measure of the sweet to tart taste balance.
A variety of calcium salts, i.e., the calcium components, were evaluated to determine their effects on the Brix-acid ratio. In this evaluation, orange juices fortified with different calcium salts were prepared at 450 mg/100 mL of calcium load. […]
Orange juices fortified with various combinations of calcium salts, i.e. calcium components, were evaluated based on physical/chemical attributes compared to unfortified orange juice.
As for `N[C@@H](CCC(=O)[O-])C(=O)[O-].O.O.O.O.[Ca+2]` [calcium L-glutamate tetrahydrate], the “Calcium - Juice (48 Hours)” value is 207. Regarding `O.O.O=C([O-])[C@H](O)[C@@H](O)C(=O)[O-].[Ca+2]` [calcium L-tartrate dihydrate], the “Calcium - Juice (48 Hours)” value is given as 140. The same measure, in the same setting: in the case of `O=C([O-])[O-].[Ca+2]` [calcium carbonate] it was 200; in that of `O.O.[Ca+2].[Cl-].[Cl-]` [calcium chloride dihydrate], 206.

Take `O=C[O-].O=C[O-].[Ca+2]` [calcium formate]: the “Calcium - Juice (48 Hours)” value is 206. Still for that read-out and setting: in the case of `O.O.O.O=C([O-])/C=C/C(=O)[O-].[Ca+2]` [calcium fumarate trihydrate] it was 202; in that of `O.O=P([O-])([O-])OCC(O)CO.[Ca+2]` (stereo not shown) [calcium glycerophosphate monohydrate], 187; in that of `CC(O)C(=O)[O-].CC(O)C(=O)[O-].O.O.O.O.O.[Ca+2]` (stereo not shown) [calcium lactate pentahydrate], 204.

As for `O=C([O-])CC(O)C(=O)[O-].[Ca+2]` (stereo not shown) [calcium malate], the “Calcium - Juice (48 Hours)” value is 213. On to `O.O=C([O-])CCC(=O)[O-].[Ca+2]` [calcium succinate monohydrate], for which the “Calcium - Juice (48 Hours)” value is on record as 206. With `O=P([O-])([O-])O.[Ca+2]` [dicalcium phosphate anhydrous], the “Calcium - Juice (48 Hours)” value came out at 203.

As for `O.O.O=P([O-])([O-])O.[Ca+2]` [dicalcium phosphate dihydrate], the “Calcium - Juice (48 Hours)” value is recorded as 181. On to `O.O=P([O-])(O)O.O=P([O-])(O)O.[Ca+2]` [monocalcium phosphate monohydrate], for which the “Calcium - Juice (48 Hours)” value is given as 207. On the same count and under the same terms, in the case of `O=C([O-])CC(O)(CC(=O)[O-])C(=O)[O-].O=C([O-])CC(O)(CC(=O)[O-])C(=O)[O-].[Ca+2].[Ca+2].[Ca+2]` [tri-calcium citrate] it was 177. With `O=P([O-])([O-])[O-].O=P([O-])([O-])[O-].[Ca+2].[Ca+2].[Ca+2]` [tricalcium phosphate (fine), tricalcium phosphate], the “Calcium - Juice (48 Hours)” value was determined as 197.

In the case of `O=P([O-])([O-])[O-].O=P([O-])([O-])[O-].[Ca+2].[Ca+2].[Ca+2]` [tricalcium phosphate], the “Calcium - Juice (48 Hours)” value was 182.

Turning to calcium ascorbate dihydrate, the “Calcium - Juice (48 Hours)” value is on record as 195. With calcium gluconate monohydrate, the “Calcium - Juice (48 Hours)” value turned out to be 198.

Staying with this data set, now noted: orange juice fortified at 450 mg/100 mL calcium load, citrate.
As for `CC(O)C(=O)O.O=C(O)[C@H](O)[C@@H](O)[C@H](O)[C@H](O)CO.O=C([O-])CC(O)(CC(=O)[O-])C(=O)O.[Ca+2]` [calcium lactate gluconate citrate], the “Calcium - Juice (48 Hours)” value was 200 and 202.
